We go through five compounds from patent publication US20260144788A1, “COMPOUND FOR SHP2 PROTEIN DEGRADATION AND MEDICAL USES THEREOF” (UBIX THERAPEUTICS, INC., priority 2022, published 2026).

The experiment addresses T1, SHP2 protein (Homo sapiens, UniProt Q06124).
T1 sequence (Q06124 1-593): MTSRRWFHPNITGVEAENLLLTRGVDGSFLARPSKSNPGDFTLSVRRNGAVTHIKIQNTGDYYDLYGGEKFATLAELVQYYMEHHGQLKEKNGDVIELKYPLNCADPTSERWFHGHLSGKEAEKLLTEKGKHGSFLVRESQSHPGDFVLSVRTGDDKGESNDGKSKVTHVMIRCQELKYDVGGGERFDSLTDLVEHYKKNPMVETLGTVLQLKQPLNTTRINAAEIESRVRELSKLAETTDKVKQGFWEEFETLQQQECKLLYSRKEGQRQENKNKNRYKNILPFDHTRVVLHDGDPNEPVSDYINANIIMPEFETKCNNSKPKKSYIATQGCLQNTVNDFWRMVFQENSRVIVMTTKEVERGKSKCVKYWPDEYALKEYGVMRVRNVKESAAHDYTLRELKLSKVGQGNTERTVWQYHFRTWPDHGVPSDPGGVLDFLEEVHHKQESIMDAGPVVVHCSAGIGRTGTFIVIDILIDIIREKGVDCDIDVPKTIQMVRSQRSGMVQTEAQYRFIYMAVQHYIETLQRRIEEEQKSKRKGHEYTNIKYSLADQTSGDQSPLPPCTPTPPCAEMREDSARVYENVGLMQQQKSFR
The experiment in a line: Measurement of SHP2 protein degradation in NCI-H358 cells (western blotting). It is filed as cell-based. Also noted: endogenous in cells; host or cells: NCI-H358. The following applies: harvested after 24 hours. An outline of the steps:
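H358 cells in RPMI1640/25 mM HEPES/10% FBS, cultured 24 h, then exposed to compound at final 0.001, 0.01 and 0.1 μM for 24 h against a DMSO control. Lysates were normalised for protein by BCA and probed by western blot for SHP2, with GAPDH as loading control.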
For orientation: Immunoblotting shows a protein as a band on a membrane.

Turning to `Cc1ncsc1-c1ccc(CNC(=O)[C@@H]2C[C@@H](O)CN2C(=O)[C@H](C(C)C)n2cc(C3CC3)nn2)c(OC2CCN(C(=O)C3CCN(c4nccc(Sc5cnc(N6CCC7(CC6)CO[C@@H](C)[C@H]7N)c(CO)n5)c4Cl)CC3)CC2)c1` [Example 106, (2S,4R)—N-(2-((1-(1-(4-((5-((3S,4S)-4-amino-3-methyl-2-oxa-8-azaspiro[4.5]decan-8-yl)-6-(hydroxymethyl)pyrazin-2-yl)thio)-3-chloropyridin-2-yl)piperidine-4-carbonyl)piperidin-4-yl)oxy)-4-(4-methylthiazol-5-yl)benzyl)-1-((S)-2-(4-cyclopropyl-1H-1,2,3-triazol-1-yl)-3-methylbutanoyl)-4-hydroxypyrrolidine-2-carboxamide], the SHP2% degradation came to 99.1% (0.01 μM) and 97.3% (0.1 μM).
Consider `Cc1ncsc1-c1ccc(CNC(=O)[C@@H]2C[C@@H](O)CN2C(=O)[C@@H](n2cc(C3CC3)nn2)C(C)(C)C)c(OC2CCN(C(=O)C3CCN(c4nccc(Sc5cnc(N6CCC(C)(CN)CC6)cn5)c4Cl)CC3)CC2)c1` [Example 107, (2S,4R)—N-(2-((1-(1-(4-((5-(4-(aminomethyl)-4-methylpiperidin-1-yl)pyrazin-2-yl)thio)-3-chloropyridin-2-yl)piperidine-4-carbonyl)piperidin-4-yl)oxy)-4-(4-methylthiazol-5-yl)benzyl)-1-((S)-2-(4-cyclopropyl-1H-1,2,3-triazol-1-yl)-3,3-dimethylbutanoyl)-4-hydroxypyrrolidine-2-carboxamide], for which the SHP2% degradation by setting is: (0.01 μM) 96.5%; (0.1 μM) 99.2%.
As for `Cc1cn([C@H](C(=O)N2C[C@H](O)C[C@H]2C(=O)NCc2ccc(-c3scnc3C)cc2OC2CCN(C(=O)C3CCN(c4nccc(Sc5cnc(N6CCC(C)(CN)CC6)c(CO)n5)c4Cl)CC3)CC2)C(C)C)nn1` [Example 108, (2S,4R)—N-(2-((1-(1-(4-((5-(4-(aminomethyl)-4-methylpiperidin-1-yl)-6-(hydroxymethyl)pyrazin-2-yl)thio)-3-chloropyridin-2-yl)piperidine-4-carbonyl)piperidin-4-yl)oxy)-4-(4-methylthiazol-5-yl)benzyl)-4-hydroxy-1-((S)-3-methyl-2-(4-methyl-1H-1,2,3-triazol-1-yl)butanoyl)pyrrolidine-2-carboxamide], the SHP2% degradation reads like this: (0.01 μM) 99.1%; (0.1 μM) 99.6%.
For `Cc1cn([C@H](C(=O)N2C[C@H](O)C[C@H]2C(=O)NCc2ccc(-c3scnc3C)cc2OC2CCN(C(=O)C3CCN(c4nccc(Sc5cnc(N6CCC(C)(N)CC6)c(CO)n5)c4Cl)CC3)CC2)C(C)C)nn1` [Example 109, (2S,4R)—N-(2-((1-(1-(4-((5-(4-amino-4-methylpiperidin-1-yl)-6-(hydroxymethyl)pyrazin-2-yl)thio)-3-chloropyridin-2-yl)piperidine-4-carbonyl)piperidin-4-yl)oxy)-4-(4-methylthiazol-5-yl)benzyl)-4-hydroxy-1-((S)-3-methyl-2-(4-methyl-1H-1,2,3-triazol-1-yl)butanoyl)pyrrolidine-2-carboxamide] the same measures were 99.0% and 99.4%.
In the same order, the values of `Cc1cn([C@H](C(=O)N2C[C@H](O)C[C@H]2C(=O)NCc2ccc(-c3scnc3C)cc2OC2CCN(C(=O)C3CCN(c4nccc(Sc5cnc(N6CCC7(CC6)CO[C@@H](C)[C@H]7N)c(CO)n5)c4Cl)CC3)CC2)C(C)C)nn1` [Example 110, (2S,4R)—N-(2-((1-(1-(4-((5-((3S,4S)-4-amino-3-methyl-2-oxa-8-azaspiro[4.5]decan-8-yl)-6-(hydroxymethyl)pyrazin-2-yl)thio)-3-chloropyridin-2-yl)piperidine-4-carbonyl)piperidin-4-yl)oxy)-4-(4-methylthiazol-5-yl)benzyl)-4-hydroxy-1-((S)-3-methyl-2-(4-methyl-1H-1,2,3-triazol-1-yl)butanoyl)pyrrolidine-2-carboxamide] are 99.8% and 99.8%.
